Results as given in US20240208954A1, “OXADIAZOLE COMPOUND, PREPARATION METHOD THEREFOR, PHARMACEUTICAL COMPOSITION AND USE THEREOF” (SHANGHAI INSTITUTE OF MATERIA MEDICA, CHINESE ACADEMY OF …, priority 2020, published 2024).
Where “and” joins values, the source holds several entries; their conditions need not be identical. Identical values can stand only once. Like-named read-outs stand apart in the source and are kept apart here.

Tests used:
S1PR3 = S1PR3 (Homo sapiens, UniProt Q99500); assay: Agonistic activity test on S1P receptors, FLIPR; type: cell-based
Description: Instrument: FLIPR™ TETRA (Molecular Device)
Sample processing: Before the experiment, the working solution with the corresponding concentration was prepared by diluting with GPCR dilution buffer.
After 18-20 hours, the cell culture plat was taken out and added with dye working solution, and then the plate was placed in a 37° C./5% CO2 incubator for 1 hour, and finally equilibrated at room temperature for 15 minutes. Positive agonist working solution was added, and RFU values were detected and recorded. […] The positive agonist working fluid was added to the cell culture plate at the 21st second. […] The antagonistic mode detection program, the overall detection time of the instrument was 120 seconds, and positive antagonist working solution was added to the cell culture plate at the 21st second.
Data processing: Raw data were obtained via ScreenWorks (version 3.1) and saved as *FMD files on the Kingsray computer network system. Data were collected and analyzed using Excel and GraphPad Prism 6 software programs. For each well, the average fluorescence intensity value from 1 to 20 seconds was used as the baseline, and the maximum fluorescence intensity value from 21 to 120 seconds minus the minimum fluorescence intensity value from 21 to 120 seconds was the relative fluorescence intensity value (ARFU), from which the percentage activation or inhibition can be calculated based on the following equation.
% Activation Rate=(ΔRFUCompound-ΔRFUBackground)/(ΔRFUAgonist control-ΔRFUBackground)×100%
The data was analyzed using GraphPad Prism 6 with a four-parameter equation to calculate the EC50 and IC50 values. The four-parameter equation was as follows: y=Bottom+(Top-Bottom)/(1+10^((LogEC50/IC50-X)*HillSlope)), wherein X is the Log value of the concentration and Y was the inhibition rate.

[1] = Preliminary assessment of in vivo pharmacokinetics in rats; details: for concentration at 0.083 h / concentration at 0.25 h / concentration at 0.5 h / concentration at 1 h / concentration at 2 h / concentration at 4 h / concentration at 6 h / concentration at 8 h / concentration at 24 h: read-out: Plasma drug concentrations in rats
[2] = rat, in vivo, rats, intravenous 2 mg/kg, mean
[3] = rat, plasma, iv, 2 mg/kg, rats, intravenous 2 mg/kg, individual animals 1-3

Sequence of S1PR3 (Q99500 whole entry, species assumed): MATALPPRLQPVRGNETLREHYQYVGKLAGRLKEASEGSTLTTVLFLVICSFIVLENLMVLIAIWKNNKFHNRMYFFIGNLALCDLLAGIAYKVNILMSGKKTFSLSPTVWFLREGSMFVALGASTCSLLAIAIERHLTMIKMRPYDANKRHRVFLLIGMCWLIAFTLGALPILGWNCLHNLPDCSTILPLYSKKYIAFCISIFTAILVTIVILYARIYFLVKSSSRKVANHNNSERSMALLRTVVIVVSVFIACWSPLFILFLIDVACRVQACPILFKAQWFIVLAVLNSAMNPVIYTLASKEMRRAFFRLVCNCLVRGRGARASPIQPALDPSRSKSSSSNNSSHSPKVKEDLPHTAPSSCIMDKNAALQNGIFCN

SMILES: CC(C)Oc1ccc(-c2nc(-c3ccc(CN4CC(C(=O)O)C4)c4ccccc34)no2)cc1C#N.Cl [Compound A1, 1-((4-(5-(3-cyano-4-isopropoxyphenyl)-1,2,4-oxadiazol-3-yl)naphthalen-1-yl)methyl) azetidine-3-carboxylic acid hydrochloric acid]
- EC50 (S1PR3; FLIPR agonist mode, read-out: S1PR3 EC50): > 10 µM
- EC50 (S1PR3; subtype selectivity study, read-out: S1P3 EC50): > 10 µM
- Plasma drug concentrations in rats ([1]; intragastric 20 mg/kg, 0.25 h, individual animals 4-6, listed as DC411151): 1960 ng/mL and 696 ng/mL and 1150 ng/mL
- Plasma drug concentrations in rats ([1]; intragastric 20 mg/kg, 0.5 h, individual animals 4-6, listed as DC411151): 1570 ng/mL and 2600 ng/mL
- Plasma drug concentrations in rats ([1]; intragastric 20 mg/kg, 1 h, individual animals 4-6, listed as DC411151): 2070 ng/mL and 3070 ng/mL
- Plasma drug concentrations in rats ([1]; intragastric 20 mg/kg, 2 h, individual animals 4-6, listed as DC411151): 1220 ng/mL and 2150 ng/mL
- Plasma drug concentrations in rats ([1]; intragastric 20 mg/kg, 4 h, individual animals 4-6, listed as DC411151): 635 ng/mL and 841 ng/mL
- Plasma drug concentrations in rats ([1]; intragastric 20 mg/kg, 6 h, individual animals 4-6, listed as DC411151): 350 ng/mL and 289 ng/mL
- Plasma drug concentrations in rats ([1]; intragastric 20 mg/kg, 8 h, individual animals 4-6, listed as DC411151): 64.0 ng/mL and 57.0 ng/mL
- Plasma drug concentrations in rats ([1]; intragastric 20 mg/kg, 24 h, individual animals 4-6, listed as DC411151): 2.49 ng/mL and 2.92 ng/mL
- Plasma drug concentrations in rats ([1]; intravenous 2 mg/kg, 0.083 h, individual animals 1-3, listed as DC411151, 2 mg/kg): 3720 ng/mL and 3390 ng/mL
- Plasma drug concentrations in rats ([1]; intravenous 2 mg/kg, 0.25 h, individual animals 1-3, listed as DC411151, 2 mg/kg): 2650 ng/mL and 2700 ng/mL
- Plasma drug concentrations in rats ([1]; intravenous 2 mg/kg, 0.5 h, individual animals 1-3, listed as DC411151, 2 mg/kg): 1710 ng/mL and 1890 ng/mL
- Plasma drug concentrations in rats ([1]; intravenous 2 mg/kg, 1 h, individual animals 1-3, listed as DC411151, 2 mg/kg): 1110 ng/mL and 951 ng/mL
- Plasma drug concentrations in rats ([1]; intravenous 2 mg/kg, 2 h, individual animals 1-3, listed as DC411151, 2 mg/kg): 563 ng/mL and 528 ng/mL
- Plasma drug concentrations in rats ([1]; intravenous 2 mg/kg, 4 h, individual animals 1-3, listed as DC411151, 2 mg/kg): 138 ng/mL and 172 ng/mL
- Plasma drug concentrations in rats ([1]; intravenous 2 mg/kg, 6 h, individual animals 1-3, listed as DC411151, 2 mg/kg): 51.4 ng/mL and 47 ng/mL
- Plasma drug concentrations in rats ([1]; intravenous 2 mg/kg, 8 h, individual animals 1-3, listed as DC411151, 2 mg/kg): 13.6 ng/mL and 16.9 ng/mL
- Plasma drug concentrations in rats ([1]; intravenous 2 mg/kg, 24 h, individual animals 1-3, listed as DC411151, 2 mg/kg): BQL and 1.94 ng/ml
- Tmax ([1]; rat, in vivo, po, rats, intragastric 20 mg/kg, individual animals 4-6, read-out: Tmax): 1 h
- AUC0-t ([1]; rat, in vivo, po, rats, intragastric 20 mg/kg, mean, read-out: AUC0-t): 8780 ng·h/mL
- Cmax ([1]; rat, in vivo, po, rats, intragastric 20 mg/kg, mean, read-out: Cmax): 2760 ng/mL
- clearance [1, 2]: 8.66 mL/min/kg
- half-life [1, 2]: 3.04 h
- Vd ([1]; rat, in vivo, rats, intravenous 2 mg/kg, mean, read-out: Vss): 0.758 L/kg
- concentration at 0.083 h ([1]; rat, plasma, iv, 2 mg/kg, intravenous 2 mg/kg, 0.083 h, individual animals 1-3): 3940 ng/mL
- concentration at 0.083 h ([1]; rat, plasma, iv, 2 mg/kg, intravenous 2 mg/kg, 0.083 h, mean): 3680 ng/mL
- concentration at 0.25 h ([1]; rat, plasma, iv, 2 mg/kg, intravenous 2 mg/kg, 0.25 h, individual animals 1-3): 2950 ng/mL
- concentration at 0.25 h ([1]; rat, plasma, iv, 2 mg/kg, intravenous 2 mg/kg, 0.25 h, mean): 2770 ng/mL
- concentration at 0.5 h ([1]; rat, plasma, iv, 2 mg/kg, intravenous 2 mg/kg, 0.5 h, individual animals 1-3): 1570 ng/mL
- concentration at 0.5 h ([1]; rat, plasma, iv, 2 mg/kg, intravenous 2 mg/kg, 0.5 h, mean): 1720 ng/mL
- concentration at 1 h ([1]; rat, plasma, iv, 2 mg/kg, intravenous 2 mg/kg, 1 h, individual animals 1-3): 900 ng/mL
- concentration at 1 h ([1]; rat, plasma, iv, 2 mg/kg, intravenous 2 mg/kg, 1 h, mean): 987 ng/mL
- concentration at 2 h ([1]; rat, plasma, iv, 2 mg/kg, intravenous 2 mg/kg, 2 h, individual animals 1-3): 419 ng/mL
- concentration at 2 h ([1]; rat, plasma, iv, 2 mg/kg, intravenous 2 mg/kg, 2 h, mean): 503 ng/mL
- concentration at 4 h ([1]; rat, plasma, iv, 2 mg/kg, intravenous 2 mg/kg, 4 h, individual animals 1-3): 128 ng/mL
- concentration at 4 h ([1]; rat, plasma, iv, 2 mg/kg, intravenous 2 mg/kg, 4 h, mean): 146 ng/mL
- concentration at 6 h ([1]; rat, plasma, iv, 2 mg/kg, intravenous 2 mg/kg, 6 h, individual animals 1-3): 45.8 ng/mL
- concentration at 6 h ([1]; rat, plasma, iv, 2 mg/kg, intravenous 2 mg/kg, 6 h, mean): 48.1 ng/mL
- concentration at 8 h ([1]; rat, plasma, iv, 2 mg/kg, intravenous 2 mg/kg, 8 h, individual animals 1-3): 11.8 ng/mL
- concentration at 8 h ([1]; rat, plasma, iv, 2 mg/kg, intravenous 2 mg/kg, 8 h, mean): 14.1 ng/mL
- concentration at 24 h ([1]; rat, plasma, iv, 2 mg/kg, intravenous 2 mg/kg, 24 h, individual animals 1-3): 1.16 ng/mL
- concentration at 24 h ([1]; rat, plasma, iv, 2 mg/kg, intravenous 2 mg/kg, 24 h, mean): 1.55 ng/mL
- AUC(0-inf) [1, 3]: 3570 ng·h/mL
- clearance [1, 3]: 9.34 mL/min/kg
